Earlier results, collected in patent US10264790B2, “Use of certain herbicide combinations based on iodosulfuron in teff plants” (BAYER CROPSCIENCE AKTIENGESELLSCHAFT, priority 2016, dated 2019).
Read-outs that look alike come from different tables or passages of the source.

Columns and labels:
teff (Eragrostis tef) = conditions: for injury on teff: in vivo; for yield reductions: field studies Kansas, teff
teff [1] = conditions: for selectivity in teff: with or without the safener
[2] = tested on: Phalaris paradoxa and Setaria pallidefusca; conditions: pot experiments; applied pre-emergence (diclofop-methyl only with a safener)
teff [3] = conditions: for levels of weed control, teff safety and teff yields: postemergence applications; for injury to teff: applied postemergence
[4] = postemergence treatments, field studies Oregon 2009

SMILES: O=C(O)COc1ccc(Cl)cc1Cl [2,4-D, (2,4-dichlorophenoxy)acetic acid]
- injury on teff (teff (Eragrostis tef)): less than 5%

SMILES: COC(=O)C(C)Oc1ccc(Oc2ccc(Cl)cc2Cl)cc1 (centres unmarked) [Diclofop-methyl]
- safety / tolerance on teff (teff [1]; pot experiments, applied pre-emergence (diclofop-methyl only with a safener)): tolerated by teff
- control of Phalaris paradoxa and Setaria pallidefusca [2]: controlled both weeds

SMILES: CCc1cccc(CC)c1N(COC)C(=O)CCl [alachlor]
- selectivity in teff (teff [1]; pot experiments): failed to show selectivity

SMILES: COc1nc(C)nc(NC(=O)NS(=O)(=O)c2ccccc2Cl)n1 [chlorsulfuron]
- teff injury (in words) (teff [3]; in vivo): little or no teff injury
- levels of weed control, teff safety and teff yields (teff [3]; field studies Oregon 2009): highest levels
- safety / tolerance on teff (teff [1]; in vivo): safe on teff
- control of Phalaris paradoxa and Setaria pallidefusca [2]: controlled both weed species

SMILES: O=C(O)c1nc(Cl)ccc1Cl [clopyralid]
- teff injury (in words) (teff [3]; [4]): little or no teff injury

SMILES: COc1nn(C(=O)NS(=O)(=O)c2ccccc2OC(F)(F)F)c(=O)n1C [flucarbazone]
- teff injury (in words) (teff [3]; [4]): little or no teff injury

SMILES: Nc1c(Cl)c(F)nc(OCC(=O)O)c1Cl [fluroxypyr]
- teff injury (in words) (teff [3]; in vivo): little or no teff injury

SMILES: COc1cc(OC)nc(NC(=O)NS(=O)(=O)c2c(C(=O)O)c(Cl)nn2C)n1 [halosulfuron]
- injury on teff (teff (Eragrostis tef)): less than 5%

SMILES: COc1cc(OC)nc(NC(=O)NS(=O)(=O)c2cc(C(=O)O)ccc2CNS(C)(=O)=O)n1 [mesosulfuron, 2-[(4,6-dimethoxypyrimidin-2-ylcarbamoyl)sulfamoyl]-α-methanesulfonamido-p-toluic acid]
- injury to teff (teff [3]; field studies Oregon 2009): 10%

SMILES: CS(=O)(=O)c1ccc(C(=O)C2C(=O)CCCC2=O)c([N+](=O)[O-])c1 [mesotrione]
- injury to teff (teff [3]; field studies Oregon 2009): 63%
- injury to the teff (teff [3]; applied preemergence, field studies Oregon 2009): 100%
- yield reductions (teff (Eragrostis tef)): 30%

SMILES: COc1ccc(NC(=O)N(C)C)cc1Cl [metoxuron]
- selectivity in teff (teff [1]; pot experiments): failed to show selectivity

SMILES: COc1nc(C)nc(=NC(=O)NS(=O)(=O)c2ccccc2C(=O)O)[nH]1 [metsulfuron]
- levels of weed control, teff safety and teff yields (teff [3]; field studies Oregon 2009): highest levels
- teff injury (in words) (teff [3]; [4]): little or no teff injury

SMILES: COc1cc(OC)nc(NC(=O)NS(=O)(=O)c2ncccc2C(=O)N(C)C)n1 [nicosulfuron]
- injury to teff (teff [3]; field studies Oregon 2009): 20%

SMILES: CCC(CC)Nc1c([N+](=O)[O-])cc(C)c(C)c1[N+](=O)[O-] [pendimethalin]
- selectivity in teff (teff [1]; pot experiments): failed to show selectivity

SMILES: CCc1cc(C)cc(CC)c1-c1c(OC(=O)C(C)(C)C)n2n(c1=O)CCOCC2 [pinoxaden]
- injury to teff (teff [3]; field studies Oregon 2009): 70%

SMILES: COc1nc(C)nc(NC(=O)NS(=O)(=O)c2ccccc2CCC(F)(F)F)n1 [prosulfuron]
- injury on teff (teff (Eragrostis tef)): less than 5%

SMILES: Cn1nc(-c2cc(OCC(=O)O)c(Cl)cc2F)c(Cl)c1OC(F)F [pyraflufen]
- teff injury (in words) (teff [3]; [4]): little or no teff injury

SMILES: CCC/C(=N\OCC)C1=C(O)CC(CC(C)SCC)CC1=O (centres unmarked) [sethoxydim]
- yield reductions (teff (Eragrostis tef)): 50%

SMILES: COc1nc(C)nc(N(C)C(=O)NS(=O)(=O)c2ccccc2C(=O)O)n1 [tribenuron]
- teff injury (in words) (teff [3]; [4]): little or no teff injury
